For test [1], the system named is rabbit skeletal muscle myosin. Briefly: Inhibition of hydrolysis of ATP by rabbit skeletal muscle myosin. Format: biochemical. A digest of the protocol:
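Actin-activated ATPase: F-actin plus rabbit skeletal myosin II with compound in Tris-HCl pH 7.5/KCl/EGTA/MgCl2, started with ATP (3 mM working stock) and run 60 min at 37 °C. Released Pi measured by CytoPhos absorbance at 650 nm against a phosphate standard curve; IC50 fitted from inhibition relative to uninhibited myosin.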

The next test concerns the target T1, CYP1A2 (Homo sapiens, UniProt P05177).
T1 construct: incubated with human liver microsomes and test compounds of different concentrations; from tissue; host or cells: human liver microsomes
T1 sequence (P05177 1-516): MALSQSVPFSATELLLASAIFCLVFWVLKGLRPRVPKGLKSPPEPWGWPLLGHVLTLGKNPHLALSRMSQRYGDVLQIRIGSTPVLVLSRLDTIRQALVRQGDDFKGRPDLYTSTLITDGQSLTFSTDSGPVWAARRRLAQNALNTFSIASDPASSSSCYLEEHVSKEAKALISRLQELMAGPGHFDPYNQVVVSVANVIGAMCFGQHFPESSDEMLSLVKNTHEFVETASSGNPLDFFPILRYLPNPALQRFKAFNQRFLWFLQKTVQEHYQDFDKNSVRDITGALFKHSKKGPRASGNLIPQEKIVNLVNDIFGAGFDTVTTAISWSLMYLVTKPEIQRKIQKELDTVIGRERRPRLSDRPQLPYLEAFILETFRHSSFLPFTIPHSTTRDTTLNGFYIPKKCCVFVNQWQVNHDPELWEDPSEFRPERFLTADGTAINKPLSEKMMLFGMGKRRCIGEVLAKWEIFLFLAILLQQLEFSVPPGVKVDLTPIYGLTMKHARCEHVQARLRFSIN
Briefly: CYP450 enzyme inhibition, human liver microsomes, CYP1A2. Format: in vitro ADME. On the procedure:
(§1) The purpose of this study was to evaluate the effect of the test compound on the activity of five isoenzymes (CYP1A2, CYP2C9, CYP2C19, CYP2D6 and CYP3A4) of human liver microsomal cytochrome P450 (CYP) by using an in vitro testing system. The specific probe substrates of CYP450 isoenzymes were incubated with human liver microsomes and test compounds of different concentrations, and reduced nicotinamide adenine dinucleotide phosphate (NADPH) was added to initiate the reaction. After the completion of the reaction, the sample was treated and liquid chromatography-tandem mass spectrometry (LC-MS/MS) was used to quantitatively detect metabolites produced by specific substrates, changes in CYP enzyme activity were determined, and IC50 value was calculated to evaluate the inhibitory potential of the test compound on each CYP enzyme subtype.
A general note: Liver microsomes are vesicles of endoplasmic reticulum, rich in cytochrome P450 enzymes.

The next test deals with T2, CYP3A4 (Homo sapiens, UniProt P08684).
T2 construct: incubated with human liver microsomes and test compounds of different concentrations; from tissue; host or cells: human liver microsomes
T2 sequence (P08684 whole entry): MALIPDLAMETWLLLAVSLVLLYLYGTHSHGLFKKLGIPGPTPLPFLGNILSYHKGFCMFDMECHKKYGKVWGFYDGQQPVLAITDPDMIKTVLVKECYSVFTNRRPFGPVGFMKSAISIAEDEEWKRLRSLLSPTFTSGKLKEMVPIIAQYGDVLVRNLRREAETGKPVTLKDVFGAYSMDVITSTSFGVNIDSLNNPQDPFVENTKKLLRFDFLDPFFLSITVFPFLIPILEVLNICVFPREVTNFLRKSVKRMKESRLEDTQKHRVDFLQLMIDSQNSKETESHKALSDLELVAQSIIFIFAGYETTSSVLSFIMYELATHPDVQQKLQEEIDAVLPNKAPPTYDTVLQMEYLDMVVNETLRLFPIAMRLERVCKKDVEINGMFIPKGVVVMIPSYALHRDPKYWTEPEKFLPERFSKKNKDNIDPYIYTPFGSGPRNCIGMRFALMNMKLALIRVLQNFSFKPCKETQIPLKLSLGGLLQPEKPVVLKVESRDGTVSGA
The test can be described thus: CYP450 enzyme inhibition, human liver microsomes, CYP3A4. It is filed as in vitro ADME. On the procedure:
as §1

The target in another test is T3, cardiac myosin SII (Bos taurus, UniProt Q9BE39).
T3 construct: purchased Cytoskeleton #MYO3-A
T3 sequence (Q9BE39 whole entry): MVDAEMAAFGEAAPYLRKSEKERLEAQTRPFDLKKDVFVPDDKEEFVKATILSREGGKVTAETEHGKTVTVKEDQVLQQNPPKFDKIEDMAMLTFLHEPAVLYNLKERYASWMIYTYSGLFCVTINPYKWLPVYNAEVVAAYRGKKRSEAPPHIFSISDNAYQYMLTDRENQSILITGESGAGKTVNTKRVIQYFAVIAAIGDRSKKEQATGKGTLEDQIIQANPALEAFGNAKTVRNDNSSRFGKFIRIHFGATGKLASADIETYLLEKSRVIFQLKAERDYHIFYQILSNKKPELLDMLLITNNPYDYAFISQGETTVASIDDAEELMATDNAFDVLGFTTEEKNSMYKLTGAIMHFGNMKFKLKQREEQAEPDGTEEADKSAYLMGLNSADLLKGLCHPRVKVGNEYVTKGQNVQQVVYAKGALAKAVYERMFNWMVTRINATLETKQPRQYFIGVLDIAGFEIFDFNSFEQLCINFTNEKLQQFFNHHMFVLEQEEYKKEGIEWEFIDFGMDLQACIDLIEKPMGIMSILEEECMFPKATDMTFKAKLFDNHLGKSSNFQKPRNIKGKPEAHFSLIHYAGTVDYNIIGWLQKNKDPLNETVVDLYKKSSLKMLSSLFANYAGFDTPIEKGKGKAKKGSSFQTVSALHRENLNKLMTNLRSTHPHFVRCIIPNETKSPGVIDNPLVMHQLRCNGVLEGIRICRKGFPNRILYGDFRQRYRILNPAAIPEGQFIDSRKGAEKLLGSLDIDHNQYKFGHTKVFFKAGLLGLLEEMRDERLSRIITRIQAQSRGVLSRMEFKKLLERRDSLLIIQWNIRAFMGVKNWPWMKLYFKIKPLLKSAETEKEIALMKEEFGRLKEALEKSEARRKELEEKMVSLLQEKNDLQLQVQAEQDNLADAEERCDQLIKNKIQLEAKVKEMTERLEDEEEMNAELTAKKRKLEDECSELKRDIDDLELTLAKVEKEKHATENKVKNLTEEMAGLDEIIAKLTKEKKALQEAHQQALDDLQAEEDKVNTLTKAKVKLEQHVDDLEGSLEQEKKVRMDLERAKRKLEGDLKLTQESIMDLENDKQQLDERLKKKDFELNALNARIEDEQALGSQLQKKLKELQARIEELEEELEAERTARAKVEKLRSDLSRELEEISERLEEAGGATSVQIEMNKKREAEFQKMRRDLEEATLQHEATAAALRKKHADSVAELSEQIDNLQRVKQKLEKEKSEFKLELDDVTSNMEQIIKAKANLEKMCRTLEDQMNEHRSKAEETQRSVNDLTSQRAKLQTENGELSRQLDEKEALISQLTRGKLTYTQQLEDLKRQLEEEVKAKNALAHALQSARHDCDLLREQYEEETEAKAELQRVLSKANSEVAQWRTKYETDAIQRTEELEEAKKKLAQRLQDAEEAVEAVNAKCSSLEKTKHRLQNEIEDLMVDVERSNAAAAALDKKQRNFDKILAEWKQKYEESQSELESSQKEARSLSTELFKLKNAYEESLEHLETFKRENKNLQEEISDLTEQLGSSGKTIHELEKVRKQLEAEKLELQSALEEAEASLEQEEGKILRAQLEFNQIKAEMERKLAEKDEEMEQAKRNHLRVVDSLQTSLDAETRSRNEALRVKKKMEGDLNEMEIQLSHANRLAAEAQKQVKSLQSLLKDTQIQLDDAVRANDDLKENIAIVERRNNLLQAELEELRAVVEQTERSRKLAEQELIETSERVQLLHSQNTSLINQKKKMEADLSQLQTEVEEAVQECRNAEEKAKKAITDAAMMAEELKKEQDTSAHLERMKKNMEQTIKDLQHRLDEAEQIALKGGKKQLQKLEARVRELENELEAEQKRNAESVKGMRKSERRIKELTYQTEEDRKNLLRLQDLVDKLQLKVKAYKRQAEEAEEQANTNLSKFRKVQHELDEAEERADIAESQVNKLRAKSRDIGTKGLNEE
T3 sequence (P85100 whole entry partner): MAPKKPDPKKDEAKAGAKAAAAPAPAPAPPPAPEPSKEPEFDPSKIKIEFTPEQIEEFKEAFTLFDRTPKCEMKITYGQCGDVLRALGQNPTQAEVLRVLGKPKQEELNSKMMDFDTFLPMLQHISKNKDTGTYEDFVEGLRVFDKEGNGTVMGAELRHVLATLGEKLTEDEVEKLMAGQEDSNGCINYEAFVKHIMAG
T3 sequence (Q3SZE5 whole entry partner): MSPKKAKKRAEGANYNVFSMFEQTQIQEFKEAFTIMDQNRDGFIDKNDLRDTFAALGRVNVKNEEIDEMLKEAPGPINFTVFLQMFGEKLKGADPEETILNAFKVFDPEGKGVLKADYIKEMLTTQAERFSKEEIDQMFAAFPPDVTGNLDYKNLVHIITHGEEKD
The test can be described thus: Inhibition of hydrolysis of ATP by cardiac myosin SII. The settings on record: 100 μM compound. Format: biochemical. A digest of the protocol: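 Bovine cardiac myosin with preformed F-actin in 15 mM Tris-HCl pH 7.5, 10 mM KCl, 2 mM MgCl2, 0.1 mM EGTA; compounds at 100 μM final, ATP from 3 mM working solution, 2 h at 37 °C. Released Pi measured colorimetrically at 650 nm against a Pi standard curve; % inhibition vs. DMSO control.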

Setting [2] is: inhibition of hydrolysis of ATP, class symbols, read-out: Rabbit skeletal muscle myosin (IC50).
[3] abbreviates: read-out: IC50 for inhibition of hydrolysis of ATP by rabbit skeletal muscle myosin.

Molecules are shown by their SMILES. Where two headings read alike, the source gives them in different places.

For `O=C1CCc2ccc(Cn3nc(-c4cnc(OCC(F)(F)F)nc4)ccc3=O)cc21` [Compound 88], the IC50 – broadly, the concentration that inhibits the measured activity by half – in test [1] (setting [2]) is less than 2500 nM; in test [1] (setting [3]) it was 800 nM; on CYP1A2, greater than 30 µM; against CYP3A4, greater than 30 µM.

`O=C1CCc2c(F)cc(Cn3nc(-c4cnc(O[C@H]5CCOC5)nc4)ccc3=O)cc21` [Compound 165]: the IC50 in test [1] (setting [2]) was 2500 to 20000 nM; against CYP1A2 it was greater than 30 µM; at CYP3A4, greater than 30 µM.

Take `O=C1CCc2ccc(Cn3nc(-c4cnc(O[C@H]5CCOC5)nc4)ccc3=O)cc21` [Compound 150]: in test [1] (setting [2]), the IC50 was less than 2500 nM. Further, the inhibition (commonly the relative decrease from the control value, in per cent) at 100 µM at cardiac myosin SII stood at 15%.

Regarding `O=C1CCc2ccc(Cn3nc(-c4cnc(OC5CC(F)(F)C5)nc4)ccc3=O)cc21` [Compound 141], the IC50 was less than 2500 nM in test [1] (setting [2]), 800 nM in test [1] (setting [3]), greater than 30 µM against CYP1A2 and greater than 30 µM against CYP3A4. Further, the inhibition at 100 µM against cardiac myosin SII amounted to 14%.

For the molecule `O=C1CCc2c(F)cc(Cn3nc(-c4cnc(OCC(F)F)nc4)ccc3=O)cc21` [Compound 167], the IC50 in test [1] (setting [2]) was less than 2500 nM; in test [1] (setting [3]) it was 270 nM; against CYP1A2 it was greater than 30 µM; on CYP3A4, greater than 30 µM. The inhibition at 100 µM against cardiac myosin SII is 4%.

`O=C1CCc2ccc(Cn3nc(-c4cnc(OCC(F)F)nc4)ccc3=O)cc21` [Compound 131]: the IC50 in test [1] (setting [2]) is less than 2500 nM; in test [1] (setting [3]), 400 nM; at CYP1A2 it was greater than 30 µM; against CYP3A4 it was greater than 30 µM.

Take `O=C1CCc2ccc(Cn3nc(-c4cnc(Oc5cncc(Cl)c5)nc4)ccc3=O)cc21` [Compound 151]: the IC50 was less than 2500 nM in test [1] (setting [2]), 700 nM in test [1] (setting [3]), greater than 30 µM on CYP1A2 and greater than 30 µM on CYP3A4. In addition, the inhibition at 100 µM against cardiac myosin SII is -2%.

For `O=C1CCc2ccc(Cn3nc(-c4cnc(O[C@@H]5CCOC5)nc4)ccc3=O)cc21` [Compound 149], the IC50 was less than 2500 nM in test [1] (setting [2]), greater than 30 µM against CYP1A2 and greater than 30 µM on CYP3A4. Besides, the inhibition at 100 µM on cardiac myosin SII is 10%.

With `O=c1ccc(-c2cnc(OCC(F)(F)F)nc2)nn1Cc1ccc2c(c1)CCC2` [Compound 57], the IC50 in test [1] (setting [2]) was less than 2500 nM; in test [1] (setting [3]), 330 nM. On cardiac myosin SII, the inhibition at 100 µM is 1.5%.

In the case of `O=C1CCc2ccc(Cn3nc(-c4cnc(OC5COCC5(F)F)nc4)ccc3=O)cc21` (stereo not shown) [Compound 164], the IC50 is less than 2500 nM in test [1] (setting [2]), greater than 30 µM against CYP1A2 and greater than 30 µM at CYP3A4. Further, at cardiac myosin SII, the inhibition at 100 µM stood at 4%.

As for `N#CC1(COc2ncc(-c3ccc(=O)n(Cc4ccc5c(c4)C(=O)CC5)n3)cn2)CC1` [Compound 158], the IC50 in test [1] (setting [2]) was less than 2500 nM; against CYP1A2 it was greater than 30 µM; against CYP3A4, greater than 30 µM. Further, at cardiac myosin SII, the inhibition at 100 µM turned out to be 10%.

For the origin of these results see patent publication US20260217683A1, “PYRIDAZINONE HETEROCYCLIC COMPOUND MYOSIN II INHIBITOR AND USE THEREOF” (Xizang Haisco Pharmaceutical Co., Ltd., priority 2023, published 2026).
